Measurements taken from patent US11247965B2 (VenatoRx Pharmaceuticals, Inc., priority 2017, dated 2022).

Columns and labels:
[1] = In vitro cytotoxicity, MTT cell viability assay in HepG2 cells; type: cell-based; conditions: human, Cytotoxicity CC50
Experimental: To evaluate antiviral selectivity, the cytotoxic activity of each compound was determined using a standard cell viability assay performed on the parental HepG2 cell line. Cell viability was determined by measuring the conversion of 3-(4,5-dimethylthiazol-2-yl)-2,5-diphenyltetrazolium bromide (MTT) to the insoluble formazan salt crystal that occurs in live cells. Briefly, HepG2 cells were seeded in 96-well plates at a density of 20,000 cells per well in EMEM+10% FBS (complete growth medium) and allowed to adhere overnight in a 37° C., 5% CO2 humidified incubator. The next day, test agents were prepared by performing 8 half-log10 serial dilutions in 100% DMSO at 200× the final desired concentration in the assay. Compounds were tested over a range of concentrations from 30 μM to 1.0 nM in the assay. HepG2 cells were incubated in the presence of various concentrations of CAMs for 7 days in a 37° C., 5% CO2 humidified incubator. At the completion of the 7-day incubation period, MTT reagent was added to each well and the mixture was incubated for an additional 3-4 hours. At the completion of the incubation period, all wells were aspirated to remove the culture medium. The formazan crystals were solubilized from the cell monolayers with 100% DMSO. Plates were briefly mixed on an orbital shaker and absorbance was measured at 492 nm using a Perkin-Elmer EnVision multi-label plate reader. All absorbance values were converted to a percentage of the signal obtained from the vehicle treated controls. Absorbance values at 492 nm are directly proportional to the number of viable cells present in the sample. A CC50 value (cytotoxic concentration that results in loss of 50% cell viability) was calculated from the dose-response curve by 4-parameter, non-linear regression analysis using the GraphPad Prism software. The positive control compound, staurosporine, reduced the viability of HepG2 cells in a dose-dependent manner (CC50=100 nM).

[2] = tested on: HBV replication in HepAD38 cells; experiment: Anti-HBV activity in HepAD38 cells, extracellular HBV DNA by QPCR; type: cell-based, HBV (genotype D, serotype ayw); conditions: Hepatitis B virus, HePAD38, 168 h, read-out: Anti-HBV EC50, HepAD38 cells, extracellular HBV DNA by QPCR, 7 days of incubation
Experimental: The anti-HBV activity of the Capsid Assembly Modulators (CAMs) was evaluated in a cell based assay utilizing the human hepatoma cell line HepAD38 (Ladner, S K., et al., 1998). HepAD38 cells were derived from the parental line, HepG2, that were stably transfected with a construct containing an HBV genome (genotype D, serotype ayw) under the control of a tetracycline repressible CMV promoter. Upon removal of tetracycline, viral pre-genomic RNA (pgRNA) and mRNAs are expressed and infectious viral particles are assembled and secreted into the culture medium providing a reliable, robust system to measure multiple steps of the HBV life cycle. Disruption of capsid formation results in reduced levels of DNA-containing virus particles that are released into the culture supernatant. To quantify the effect of CAMs on HBV replication, we developed a sensitive QPCR-based assay that measures extracellular HBV DNA levels upon treatment of HepAD38 cells with various concentrations of test compounds.
HepAD38 cells were maintained in DMEM/F12 medium containing 10% FBS, 400 μg/mL G418 and 0.3 μg/mL tetracycline (tet+medium) to maintain repression of HBV replication. To evaluate each compound, HepAD38 cells were seeded into 24-well collagen coated culture plates (Corning BioCoat) at a density of 200,000 cells per well in 1 mL of tet+medium and allowed to adhere overnight at 37° C., 5% CO2 in a humidified incubator. The following day, test articles were subjected to half-logo serial dilutions, ranging from 30 μM to 10 nM, in 100% DMSO at 200× the desired final assay concentration. Tetracycline was removed from the cells by aspirating the tet+medium and washing the cells once with growth medium lacking tetracycline (tet-). Various concentrations of each compound were added to the appropriate wells (1:200 dilution) and the plates were returned to the incubator. Following 7 days of incubation, culture supernatants were harvested and HBV DNA levels were evaluated by QPCR and compared to the vehicle treated control wells (i.e. DMSO alone).
To quantify HBV DNA levels, cell culture supernatants were diluted 1:10 in sterile, nuclease-free water (Gibco). The diluted supernatants were subsequently added to a PCR master mix containing 1× Roche Light Cycler Master Mix, 0.5 μM forward primer, 0.5 μM reverse primer (Fwd:
0.2 μM Roche Universal Probe Library Probe 25. The volume was brought to 20 μL with nuclease-free water and amplification of the HBV target sequence was performed using a Roche LightCycler 480 QPCR instrument. PCR extended out to 45 cycles with each cycle consisting of a denaturation step at 95° C. for 10 sec., followed by an annealing step at 60° C. for 10 sec. and a brief extension step at 72° C. for 1 sec.
Extracellular HBV DNA levels, expressed in copies/mL, were determined by comparison to a standard curve (10^2-10^9 copies/mL) using the Roche LightCycler analysis software. These values were subsequently converted to percent inhibition of HBV replication by dividing the HBV DNA levels in the experimental samples with those obtained from the vehicle control (˜1-2×10^5 copies/mL). Potency, expressed as an EC50 (the effective concentration required to inhibit […] of HBV replication), was calculated from the dose-response curve using a 4-parameter non-linear regression analysis (GraphPad Prism). The nucleoside analog inhibitor entecavir was used as a positive control to validate each assay run. The EC50 value of entecavir in the HepAD38 assay was 0.5 nM, as previously reported in the literature.

SMILES: O=C(Nc1ccc(F)cn1)c1ccc(Cl)c(C(F)(F)C(=O)N2CCC(O)CC2)c1 [Example 38, 4-chloro-3-(1,1-difluoro-2-(4-hydroxypiperidin-1-yl)-2-oxoethyl)-N-(5-fluoropyridin-2-yl)benzamide]
- CC50 at 7 days [1]: > 30 µM
- EC50 [2]: > 30 µM

SMILES: O=C(Nc1ccc(Cl)cc1)c1ccc(Cl)c(C(F)(F)C(=O)N2CCC(O)CC2)c1 [Example 39, 4-chloro-N-(4-chlorophenyl)-3-(1,1-difluoro-2-(4-hydroxypiperidin-1-yl)-2-oxoethyl)benzamide]
- CC50 at 7 days [1]: 5 to 30 µM
- EC50 [2]: 5 to 30 µM

SMILES: CN(C(=O)c1ccc(Cl)c(C(F)(F)C(=O)N2CCC(O)CC2)c1)c1ccc(Cl)cc1 [Example 40, 4-chloro-N-(4-chlorophenyl)-3-(1,1-difluoro-2-(4-hydroxypiperidin-1-yl)-2-oxoethyl)-N-methylbenzamide]
- CC50 at 7 days [1]: > 30 µM
- EC50 [2]: > 30 µM

SMILES: O=C(Nc1ccc(F)cc1Cl)c1ccc(Cl)c(C(F)(F)C(=O)N2CCC(O)CC2)c1 [Example 41, 4-chloro-N-(2-chloro-4-fluorophenyl)-3-(1,1-difluoro-2-(4-hydroxypiperidin-1-yl)-2-oxoethyl)benzamide]
- CC50 at 7 days [1]: > 30 µM
- EC50 [2]: 5 to 30 µM

SMILES: O=C(Nc1ccc(F)c(F)c1)c1ccc(Cl)c(C(F)(F)C(=O)N2CCC(O)CC2)c1 [Example 42, 4-chloro-3-(1,1-difluoro-2-(4-hydroxypiperidin-1-yl)-2-oxoethyl)-N-(3,4-difluorophenyl)benzamide]
- CC50 at 7 days [1]: 5 to 30 µM
- EC50 [2]: < 5 µM

SMILES: O=C(Nc1ccc(F)c(Br)c1)c1ccc(Cl)c(C(F)(F)C(=O)N2CCC(O)CC2)c1 [Example 43, N-(3-bromo-4-fluorophenyl)-4-chloro-3-(1,1-difluoro-2-(4-hydroxypiperidin-1-yl)-2-oxoethyl)benzamide]
- CC50 at 7 days [1]: 5 to 30 µM
- EC50 [2]: < 5 µM

SMILES: Cc1cc(NC(=O)c2cnc(C(F)(F)C(=O)N3CCC(O)CC3)s2)ccc1F [Example 44, 2-(1,1-difluoro-2-(4-hydroxypiperidin-1-yl)-2-oxoethyl)-N-(4-fluoro-3-methylphenyl)thiazole-5-carboxamide]
- CC50 at 7 days [1]: > 30 µM
- EC50 [2]: > 30 µM

SMILES: CC(C)(CCO)NC(=O)C(F)(F)c1cc(C(=O)Nc2ccc(F)c(F)c2)ccc1F [Example 45, 3-(1,1-difluoro-2-((4-hydroxy-2-methylbutan-2-yl)amino)-2-oxoethyl)-N-(3,4-difluorophenyl)-4-fluorobenzamide]
- CC50 at 7 days [1]: 5 to 30 µM
- EC50 [2]: < 5 µM

SMILES: CCN(CCCO)C(=O)C(F)(F)c1cc(C(=O)Nc2ccc(F)c(F)c2)ccc1F [Example 46, N-(3,4-difluorophenyl)-3-(2-(ethyl(3-hydroxypropyl)amino)-1,1-difluoro-2-oxoethyl)-4-fluorobenzamide]
- CC50 at 7 days [1]: > 30 µM
- EC50 [2]: 5 to 30 µM

SMILES: CN(CCCO)C(=O)C(F)(F)c1cc(C(=O)Nc2ccc(F)c(F)c2)ccc1F [Example 47, 3-(1,1-difluoro-2-((3-hydroxypropyl)(methyl)amino)-2-oxoethyl)-N-(3,4-difluorophenyl)-4-fluorobenzamide]
- CC50 at 7 days [1]: > 30 µM
- EC50 [2]: 5 to 30 µM

SMILES: O=C(Nc1ccc(F)c(F)c1)c1ccc(F)c(C(F)(F)C(=O)N2CCC(CO)CC2)c1 [Example 48, 3-(1,1-difluoro-2-(4-(hydroxymethyl)piperidin-1-yl)-2-oxoethyl)-N-(3,4-difluorophenyl)-4-fluorobenzamide]
- CC50 at 7 days [1]: 5 to 30 µM
- EC50 [2]: < 5 µM

SMILES: O=C(Nc1ccc(F)c(F)c1)c1ccc(F)c(C(F)(F)C(=O)N2CCCC(CO)C2)c1 (stereo not drawn) [Example 49, 3-(1,1-difluoro-2-(3-(hydroxymethyl)piperidin-1-yl)-2-oxoethyl)-N-(3,4-difluorophenyl)-4-fluorobenzamide]
- CC50 at 7 days [1]: > 30 µM
- EC50 [2]: < 5 µM

SMILES: O=C(Nc1ccc(F)c(F)c1)c1ccc(F)c(C(F)(F)C(=O)Nc2ccncc2)c1 [Example 50, 3-(1,1-difluoro-2-oxo-2-(pyridin-4-ylamino)ethyl)-N-(3,4-difluorophenyl)-4-fluorobenzamide]
- CC50 at 7 days [1]: 5 to 30 µM
- EC50 [2]: 5 to 30 µM

SMILES: O=C(Nc1ccc(F)c(F)c1)c1ccc(F)c(C(F)(F)C(=O)NCc2ccncc2)c1 [Example 51, 3-(1,1-difluoro-2-oxo-2-((pyridin-4-ylmethyl)amino)ethyl)-N-(3,4-difluorophenyl)-4-fluorobenzamide]
- CC50 at 7 days [1]: > 30 µM
- EC50 [2]: < 5 µM

SMILES: CCCN(CCO)C(=O)C(F)(F)c1cc(C(=O)Nc2ccc(F)c(F)c2)ccc1F [Example 52, 3-(1,1-difluoro-2-((2-hydroxyethyl)(propyl)amino)-2-oxoethyl)-N-(3,4-difluorophenyl)-4-fluorobenzamide]
- CC50 at 7 days [1]: > 30 µM
- EC50 [2]: 5 to 30 µM

SMILES: O=C(Nc1ccc(F)c(F)c1)c1ccc(F)c(C(F)(F)C(=O)NC[C@@H](O)CO)c1 [Example 53, (R)—N-(3,4-difluorophenyl)-3-(2-((2,3-dihydroxypropyl)amino)-1,1-difluoro-2-oxoethyl)-4-fluorobenzamide]
- CC50 at 7 days [1]: > 30 µM
- EC50 [2]: < 5 µM

SMILES: O=C(Nc1ccc(F)c(F)c1)c1ccc(F)c(C(F)(F)C(=O)NC[C@H](O)CO)c1 [Example 54, (S)—N-(3,4-difluorophenyl)-3-(2-((2,3-dihydroxypropyl)amino)-1,1-difluoro-2-oxoethyl)-4-fluorobenzamide]
- CC50 at 7 days [1]: > 30 µM
- EC50 [2]: < 5 µM

SMILES: CCN(CCO)C(=O)C(F)(F)c1cc(C(=O)Nc2ccc(F)c(F)c2)ccc1F [Example 55, N-(3,4-difluorophenyl)-3-(2-(ethyl(2-hydroxyethyl)amino)-1,1-difluoro-2-oxoethyl)-4-fluorobenzamide]
- CC50 at 7 days [1]: > 30 µM
- EC50 [2]: 5 to 30 µM

SMILES: Cc1cc(NC(=O)c2ccc(Cl)c(C(F)(F)C(=O)N3CC[C@@H](O)[C@@H](O)C3)c2)ccc1F [Example 57, 4-chloro-3-(2-((3S,4R)-3,4-dihydroxypiperidin-1-yl)-1,1-difluoro-2-oxoethyl)-N-(4-fluoro-3-methylphenyl)benzamide]
- CC50 at 7 days [1]: > 30 µM
- EC50 [2]: < 5 µM

SMILES: Cc1cc(NC(=O)c2ccc(Cl)c(C(F)(F)C(=O)N3CC[C@H](O)[C@H](O)C3)c2)ccc1F [Example 58, 4-chloro-3-(2-((3R,4S)-3,4-dihydroxypiperidin-1-yl)-1,1-difluoro-2-oxoethyl)-N-(4-fluoro-3-methylphenyl)benzamide]
- CC50 at 7 days [1]: > 30 µM
- EC50 [2]: < 5 µM

SMILES: Cc1cc(NC(=O)c2csc(C(F)(F)C(=O)N3CCCC3)c2)ccc1F [Example 59, 5-(1,1-difluoro-2-oxo-2-(pyrrolidin-1-yl)ethyl)-N-(4-fluoro-3-methylphenyl)thiophene-3-carboxamide]
- CC50 at 7 days [1]: > 30 µM
- EC50 [2]: < 5 µM
